Biological target: T1, full length AKT1 (Homo sapiens, UniProt P31749)
T1 construct: His tag (from vector pFastBacHTb) (N); made in house; host or cells: Baculovirus, insect cells (virus made in Sf9, T. ni cells infected; the purification text says sf9 cells)
Test: Full-length AKT enzyme assay (substrate phosphorylation, SPA)
Format: biochemical
Conditions: in at least one experimental run; pIC50 = -log(IC50), IC50 in molar units; 4 uM ATP, 10 nM activated enzyme; read-out: pIC50 against full length AKT1 (converted)
Excerpt: Full-length human AKT1 gene was amplified by PCR from a plasmid containing myristylated-AKT1-ER (gift from Robert T. Abraham, Duke University under MTA, described in Klippel et al. in Molecular and Cellular Biology 1998 Volume 18 p. 5699) using the 5′ primer: SEQ. ID NO: 2 5′ […] 3′ and the 3′ primer: SEQ. ID NO: 3 […] 3′. The 5′ primer included a BamHI site and the 3′ primer included an XhoI site for cloning purposes. The resultant PCR product was subcloned in pcDNA3 as a BamHI/XhoI fragment. A mutation in the sequence (TGC) coding for a Cysteine^25 was converted to the wild-type AKT1 sequence (CGC) coding for an Arginine^25 by site-directed mutagenesis using the QuikChange® Site Directed Mutagenesis Kit (Stratagene). The AKT1 mutagenic primer: SEQ. ID NO: 4 5′[…] and selection primer: SEQ. […] For expression/purification purposes, AKT1 was isolated as a BamHI/XhoI fragment and cloned into the BamHI/XhoI sites of pFastbacHTb (Invitrogen).
Expression was done using the BAC-to-BAC Baculovirus Expression System from Invitrogen (catalog #10359-016). […]
Compounds of the present invention were tested for AKT 1, 2, and 3 protein serine kinase inhibitory activity in substrate phosphorylation assays. […] Substrate phosphorylation was detected by the following procedure. […]

T1 sequence (P31749 whole entry): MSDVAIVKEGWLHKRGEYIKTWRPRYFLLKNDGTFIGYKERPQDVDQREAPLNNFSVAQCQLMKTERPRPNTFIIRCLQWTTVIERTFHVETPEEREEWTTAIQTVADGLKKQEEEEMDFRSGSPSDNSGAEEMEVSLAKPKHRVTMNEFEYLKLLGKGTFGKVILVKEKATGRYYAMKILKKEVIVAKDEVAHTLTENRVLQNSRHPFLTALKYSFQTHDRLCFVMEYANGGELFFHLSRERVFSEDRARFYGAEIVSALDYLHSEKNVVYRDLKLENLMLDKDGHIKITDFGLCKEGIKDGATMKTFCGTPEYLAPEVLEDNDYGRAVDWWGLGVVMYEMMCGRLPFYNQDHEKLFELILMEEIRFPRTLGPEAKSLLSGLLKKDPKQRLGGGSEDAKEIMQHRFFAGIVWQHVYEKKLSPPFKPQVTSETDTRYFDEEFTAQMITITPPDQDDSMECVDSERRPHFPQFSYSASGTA

IC50: 501 nM
SMILES: Cn1nccc1-c1nc(C(=O)N[C@H](CN)Cc2cccc(F)c2)cs1 [Example 1, N-{(1S)-2-amino-1-[(3-fluorophenyl)methyl]ethyl}-2-(1-methyl-1H-pyrazol-5-yl)-1,3-thiazole-4-carboxamide]

From patent US20110160255A1, “INHIBITORS OF AKT ACTIVITY” (priority 2008, published 2011)
